Counter-ions that a name gives are not always drawn. One block for each compound: values may come before it.
Tests used:
Format in all cases: physicochemical
[1] = Dynamic vapor sorption (DVS)
[2] = Water uptake of the desolvated form in contact with air (water by KF)
Description: (§1) The stable form screen of Compound I bis-HCl was performed using 20 solvents (5-10 volumes) in an attempt to discover all crystalline forms, as summarized in Table 2. Four crystalline solvates were discovered in the slurries, which utilized alcohols such as methanol, ethanol and 1-propanol. With ethanol, the initial precipitation was Compound I bis-HCl Form III solids; after stirring for two weeks, the solids became Compound I bis-HCl Form V. The shapes of these crystals appeared as needles, shown in FIG. 47. After vacuum drying, these solvates lost solvents easily and changed to Compound I bis-HCl Form VI. […] For example, Compound I bis-HCl Form VI contains 8.8% water by KF after drying the methanol solvate and contains 5.2% water after drying the ethanol solvate. Each form was characterized by XRPD, DSC and TGA (FIGS. 4-19). TGA and DSC analysis were conducted after the samples were dried at room temperature in vacuum oven for 1 hour.

[3] = Stable form screen of Compound I bis-HCl: solubility in solvents; settings: thermodynamic from solid
Description: as §1

Moisture uptake in DVS ([1]; between about 10-50% RH, FIG. 53): about 7%
SMILES: COC[C@H]1C[C@@H](c2ncc(-c3ccc4c(c3)COc3cc5c(ccc6nc([C@@H]7CC[C@H](C)N7C(=O)[C@@H](NC(=O)OC)C(C)C)[nH]c65)cc3-4)[nH]2)N(C(=O)[C@H](NC(=O)OC)c2ccccc2)C1 [Compound I D-tartrate Form II, methyl {(2S)-1-[(2S,5S)-2-(9-{2-[(2S,4S)-1-{(2R)-2-[(methoxycarbonyl)amino]-2-phenylacetyl}-4-(methoxymethyl)pyrrolidin-2-yl]-1H-imidazol-5-yl}-1,11-dihydroisochromeno[4′,3′:6,7]naphtho[1,2-d]imidazol-2-yl)-5-methylpyrrolidin-1-yl]-3-methyl-1-oxobutan-2-yl}carbamate D-tartrate]

Hygroscopicity by DVS analysis ([1]; FIG. 19): hygroscopic
Water by KF ([2]; after drying the ethanol solvate): 5.2%
Water by KF ([2]; after drying the methanol solvate): 8.8%
Water absorption in contact with air ([2]; desolvated form): absorbs water quickly
SMILES: COC[C@H]1C[C@@H](c2ncc(-c3ccc4c(c3)COc3cc5c(ccc6nc([C@@H]7CC[C@H](C)N7C(=O)[C@@H](NC(=O)OC)C(C)C)[nH]c65)cc3-4)[nH]2)N(C(=O)[C@H](NC(=O)OC)c2ccccc2)C1 [Compound I bis-HCl Form VI, methyl {(2S)-1-[(2S,5S)-2-(9-{2-[(2S,4S)-1-{(2R)-2-[(methoxycarbonyl)amino]-2-phenylacetyl}-4-(methoxymethyl)pyrrolidin-2-yl]-1H-imidazol-5-yl}-1,11-dihydroisochromeno[4′,3′:6,7]naphtho[1,2-d]imidazol-2-yl)-5-methylpyrrolidin-1-yl]-3-methyl-1-oxobutan-2-yl}carbamate bis-hydrochloride]

solubility ([3]; ethanol, organic solvent or mixture, solvent EtOH, initial Form III, final Form V): 9 mg/mL
solubility ([3]; ethanol/water, aqueous with cosolvent or surfactant or cyclodextrin, solvent EtOH/water, Solution): > 20 mg/mL
solubility ([3]; methanol, organic solvent or mixture, solvent MeOH, final form Compound I bis-HCl Form II): 50 mg/mL
solubility ([3]; organic solvent or mixture, solvent 1-Propanol, final form Compound I bis-HCl Form IV): 9 mg/mL
solubility ([3]; organic solvent or mixture, solvent 2-Butanol, Solution): > 50 mg/mL
solubility ([3]; organic solvent or mixture, solvent Acetone, Mesophase): 6 mg/mL
solubility ([3]; organic solvent or mixture, solvent DCM, Solution): > 20 mg/mL
solubility ([3]; organic solvent or mixture, solvent Ethyl acetate, Mesophase): < 1 mg/mL
solubility ([3]; organic solvent or mixture, solvent IPAc, Mesophase): < 1 mg/mL
solubility ([3]; organic solvent or mixture, solvent MIBK, Mesophase): < 1 mg/mL
solubility ([3]; organic solvent or mixture, solvent MTBE, Amorphous): < 1 mg/mL
solubility ([3]; organic solvent or mixture, solvent Toluene, Mesophase): < 1 mg/mL
solubility ([3]; organic solvent or mixture, solvent heptane, Amorphous): < 1 mg/mL
solubility ([3]; solvent Water, final form Amorphous): < 1 mg/mL
SMILES: COC[C@H]1C[C@@H](c2ncc(-c3ccc4c(c3)COc3cc5c(ccc6nc([C@@H]7CC[C@H](C)N7C(=O)[C@@H](NC(=O)OC)C(C)C)[nH]c65)cc3-4)[nH]2)N(C(=O)[C@H](NC(=O)OC)c2ccccc2)C1 [Compound I bis-HCl, methyl {(2S)-1-[(2S,5 S)-2-(9-{2-[(2S,4S)-1-{(2R)-2-[(methoxycarbonyl)amino]-2-phenylacetyl}-4-(methoxymethyl)pyrrolidin-2-yl]-1H-imidazol-5-yl}-1,11-dihydroisochromeno[4′,3′:6,7]naphtho[1,2-d]imidazol-2-yl)-5-methylpyrrolidin-1-yl]-3-methyl-1-oxobutan-2-yl}carbamate bis-hydrochloride]

Reference: patent US11203599B2, “Solid forms of an antiviral compound” (Gilead Pharmasset LLC, priority 2014, dated 2021)
